Here are results for 15 compounds from patent publication US10961215B2, “N-aryl and N-heteroaryl piperidine derivatives as liver X receptor beta agonists, compositions, and their use” (Merck Sharp & Dohme Corp., priority 2016, dated 2021).

The target in assay [1] is T1, GST tagged LXRalpha LBD (ligand binding domain) (Homo sapiens, UniProt Q13133).
T1 construct: purchased Invitrogen pv4655
T1 sequence (Q13133 209-447 limits assumed): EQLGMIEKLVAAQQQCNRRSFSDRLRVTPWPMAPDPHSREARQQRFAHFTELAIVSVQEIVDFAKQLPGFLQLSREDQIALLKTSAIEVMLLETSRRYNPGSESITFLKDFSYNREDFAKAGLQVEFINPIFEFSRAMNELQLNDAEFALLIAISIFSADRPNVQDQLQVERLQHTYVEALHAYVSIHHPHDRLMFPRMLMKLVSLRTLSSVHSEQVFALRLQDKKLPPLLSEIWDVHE
Nature of the assay: LanthaScreen TR-FRET Liver X Receptor Coactivator Assay, LXR alpha-LBD (co-activator recruitment; IP and % Emax relative to T0901317). In kind it is biochemical. As to conditions: for EC50 / LXR alpha IP (nM): Inflection Point of co-activator recruitment, LXR alpha-LBD, TR-FRET; for Emax: efficacy at max dose in relation to reference T0901317, LXR alpha-LBD, read-out: LXR alpha actiivty at max dose (%). The protocol:
(§1) Potency (Inflection Point, IP) and efficacy (Emax) are evaluated via compound-induced co-activator recruitment to glutathione-S-transferase (GST) tagged LXRbeta and LXRalpha LBD (ligand binding domain) proteins in relation to reference dual agonist compound T0901317 (N-(2,2,2-Trifluoroethyl)-N-[4-[2,2,2-trifluoro-1-hydroxy-1-(trifluoromethyl)ethyl]phenyl]benzenesulfonamide) using the LanthaScreen™ TR-FRET Liver X Receptor Coactivator Assays according to manufacturer's instructions (Invitrogen catalog number pv4658.pps and pv4655). While running the LanthaScreen™ TR-FRET Liver X Receptor Coactivator Assay, LXR alpha-LBD or LXR beta-LBD was added to ligand test compounds followed by addition of a mixture of a fluorescein-labelled coactivator peptide and terbium-conjugated anti-GST antibody. After an incubation period at room temperature, TR-FRET (time-resolved fluorescence resonance energy transfer) was measured using a filter-based instrument capable of TR-FRET, e.g. PerkinElmer Envision.

In assay [2] the target is T2, GST tagged LXRbeta LBD (ligand binding domain) (Homo sapiens, UniProt P55055).
T2 construct: purchased Invitrogen pv4658.pps
T2 sequence (P55055 222-460 limits assumed): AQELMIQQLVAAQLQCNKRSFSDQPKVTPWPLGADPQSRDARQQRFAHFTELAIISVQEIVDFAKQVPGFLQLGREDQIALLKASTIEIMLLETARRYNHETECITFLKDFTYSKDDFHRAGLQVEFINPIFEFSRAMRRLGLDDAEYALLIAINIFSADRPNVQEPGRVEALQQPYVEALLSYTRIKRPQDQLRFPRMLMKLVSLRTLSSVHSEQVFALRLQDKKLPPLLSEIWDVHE
As to the kind of experiment: LanthaScreen TR-FRET Liver X Receptor Coactivator Assay, LXR beta-LBD (co-activator recruitment; IP and % Emax relative to T0901317). As to conditions: for EC50: Inflection Point of co-activator recruitment, LXR beta-LBD, TR-FRET; for Emax: efficacy at max dose in relation to reference T0901317, LXR beta-LBD, read-out: LXR beta actiivty at max dose (%). In kind it is biochemical. The protocol: as §1
For orientation: Time-resolved FRET reads energy transfer from a long-lived donor to a nearby acceptor.

The structures appear in SMILES notation.

By EC50 is commonly meant the midpoint of the concentration-response curve. A low value points to higher potency in that assay. Take `CN(C)C(=O)c1ccc(N2CCC(CCCN(C)C(=O)[C@]3(C(F)(F)F)CCCO3)CC2)nc1Cl` [Example 1-8, (S)-2-chloro-N,N-dimethyl-6-(4-(3-(N-methyl-2-(trifluoromethyl)-tetrahydrofuran-2-carboxamido)propyl)piperidin-1-yl)nicotinamide]: in assay [1], the EC50 amounted to 1770 nM and the Emax was 51%. Moreover, in assay [2], it took 106 nM to reach a half-maximal effect (EC50) and the Emax amounted to 81%.
For `COc1cccc([C@@](O)(C(=O)N(C)CCCC2CCN(c3ccc(C(=O)N(C)C)c(Cl)n3)CC2)C(F)(F)F)c1` [Example 1-9, (R)-2-chloro-N,N-dimethyl-6-(4-(3-(3,3,3-trifluoro-2-hydroxy-2-(3-methoxyphenyl)-N-methylpropanamido)propyl)piperidin-1-yl)nicotinamide], in assay [1], the “LXR alpha IP (nM)” value was “No IP” and the Emax was 4%. Moreover, in assay [2], the midpoint of the response, the EC50, lay at 46 nM and the Emax worked out at 69%.
In the same order, the values of `CN(C)C(=O)c1ccc(N2CCC(CCCN(C)C(=O)[C@]3(c4ccccc4)CCCO3)CC2)nc1Cl` [Example 1-10, (R)-2-chloro-N,N-dimethyl-6-(4-(3-(N-methyl-2-phenyl-tetrahydrofuran-2-carboxamido)propyl)piperidin-1-yl)nicotinamide] are “No IP”, 9%, 72 nM and 71%.
For `CN(C)C(=O)c1ccc(N2CCC(CCCN(C)C(=O)[C@@](O)(c3cc(F)cc(Cl)c3)C(F)(F)F)CC2)nc1Cl` [Example 1-11, (S)-2-chloro-6-(4-(3-(2-(3-chloro-5-fluorophenyl)-3,3,3-trifluoro-2-hydroxy-N-methylpropanamido)propyl)piperidin-1-yl)-N,N-dimethylnicotinamide], in that order: “No IP”, 0%, 453 nM and 59%.
With `CN(C)C(=O)c1ccc(N2CCC(CCCN(C)C(=O)[C@](O)(c3cc(F)cc(Cl)c3)C(F)(F)F)CC2)nc1Cl` [Example 1-12, (R)-2-chloro-6-(4-(3-(2-(3-chloro-5-fluorophenyl)-3,3,3-trifluoro-2-hydroxy-N-methylpropanamido)propyl)piperidin-1-yl)-N,N-dimethylnicotinamide], in assay [1], a half-maximal effect (EC50) was put at 372 nM and the Emax was found to be 23%. In assay [2], the EC50 stood at 13 nM and the Emax came to 78%.
Consider `COc1cccc([C@](O)(C(=O)N(C)CCCC2CCN(c3ccc(C(=O)N(C)C)c(Cl)n3)CC2)C(F)F)c1` [Example 1-13, (S)-2-chloro-6-(4-(3-(3,3-difluoro-2-hydroxy-2-(3-methoxyphenyl)-N-methylpropanamido)propyl)piperidin-1-yl)-N,N-dimethylnicotinamide], for which, in assay [1], the “LXR alpha IP (nM)” value was “No IP” and the Emax amounted to 0%. Also, in assay [2], the EC50 was 148 nM and the Emax worked out at 63%.
For `CN(C)C(=O)c1ccc(N2CCC(CCCN(C)C(=O)C3(c4ccccc4)OCCO3)CC2)nc1Cl` [Example 1-14, 2-chloro-N,N-dimethyl-6-(4-(3-(N-methyl-2-phenyl-1,3-dioxolane-2-carboxamido)propyl)piperidin-1-yl)nicotinamide], in that order: “No IP”, 0%, 366 nM and 19%.
`Cc1cccc([C@@](O)(C(=O)N(C)CCCC2CCN(c3ccc(C(=O)N(C)C)c(Cl)n3)CC2)C(F)(F)F)c1` [Example 1-15, (R)-2-chloro-N,N-dimethyl-6-(4-(3-(3,3,3-trifluoro-2-hydroxy-N-methyl-2-m-tolylpropanamido)propyl)piperidin-1-yl)nicotinamide]: in assay [1], the “LXR alpha IP (nM)” value is given as “No IP” and the Emax turned out to be 0%. For the same compound, in assay [2], a half-maximal effect (EC50) was put at 76 nM and the Emax stood at 55%.
Take `Cc1cccc([C@](O)(C(=O)N(C)CCCC2CCN(c3ccc(C(=O)N(C)C)c(Cl)n3)CC2)C(F)(F)F)c1` [Example 1-16, (S)-2-chloro-N,N-dimethyl-6-(4-(3-(3,3,3-trifluoro-2-hydroxy-N-methyl-2-m-tolylpropanamido)propyl)piperidin-1-yl)nicotinamide]: in assay [1], the “LXR alpha IP (nM)” value is “No IP” and the Emax was 1%. Besides, in assay [2], the midpoint of the response, the EC50, lay at 179 nM and the Emax worked out at 54%.
In the same order, the values of `CN(C)C(=O)c1ccc(N2CCC(CCCN(C)C(=O)C3(c4ccccc4)CCOCC3)CC2)nc1Cl` [Example 1-17, 2-chloro-N,N-dimethyl-6-(4-(3-(N-methyl-4-phenyl-tetrahydro-2H-pyran-4-carboxamido)propyl)piperidin-1-yl)nicotinamide] are “No IP”, 7%, 290 nM and 55%.
For `CC(C)[C@@]1(C(=O)N(C)CCCC2CCN(c3ccc(C(=O)N(C)C)c(Cl)n3)CC2)CCCO1` [Example 1-18, (R)-2-chloro-6-(4-(3-(2-isopropyl-N-methyl-tetrahydrofuran-2-ycarboxamido)propyl)piperidin-1-yl)-N,N-dimethylnicotinamide], in that order: “No IP”, 13%, 564 nM and 41%.
For the compound `CC(C)[C@]1(C(=O)N(C)CCCC2CCN(c3ccc(C(=O)N(C)C)c(Cl)n3)CC2)CCCO1` [Example 1-19, (S)-2-chloro-6-(4-(3-(2-isopropyl-N-methyl-tetrahydrofuran-2-carboxamido)propyl)piperidin-1-yl)-N,N-dimethylnicotinamide], in assay [1], a half-maximal response (EC50) required 17400 nM and the Emax worked out at 38%. In assay [2], the EC50 came out at 1040 nM and the Emax came to 41%.
As for `CN(C)C(=O)c1ccc(N2CCC(CCCN(C)C(=O)[C@](C)(O)c3ccccc3)CC2)nc1Cl` [Example 1-20, (R)-2-chloro-6-(4-(3-(2-hydroxy-N-methyl-2-phenylpropanamido)propyl)piperidin-1-yl)-N,N-dimethylnicotinamide], in assay [1], the “LXR alpha IP (nM)” value is on record as “No IP” and the Emax is 6%. In addition, in assay [2], a half-maximal response (EC50) required 508 nM and the Emax was found to be 32%.
In the same order, the values of `CN(C)C(=O)c1ccc(N2CCC(CCCN(C)C(=O)[C@@](C)(O)c3ccccc3)CC2)nc1Cl` [Example 1-21, (S)-2-chloro-6-(4-(3-(2-hydroxy-N-methyl-2-phenylpropanamido)propyl)piperidin-1-yl)-N,N-dimethylnicotinamide] are “No IP”, 9%, 330 nM and 60%.
In the same order, the values of `CN(C)C(=O)c1ccc(N2CCC(CCCN(C)C(=O)[C@](O)(c3ccccc3)C3CCC3)CC2)nc1Cl` [Example 1-22, (R)-2-chloro-6-(4-(3-(2-cyclobutyl-2-hydroxy-N-methyl-2-phenylaceetamido)propyl)piperidin-1-yl)-N,N-dimethylnicotinamide] are “No IP”, 9%, 64 nM and 94%.
